Assay results taken from paper PMC7531004, “Discovery of gramicidin A analogues with altered activities by multidimensional screening of a one-bead-one-compound library” (Nature Communications, 2020).
Where a SMILES comes first, the peptide text is derived from it. [ ]: non-standard residue; d: D form. The star is where a group is joined. NHCH2CH2OH = OCCN*; For = O=C*

Test: H+/Na+ transport assay of bead-derived peptides (one-point)
Format: biochemical
Set-up: key: relative activity; mean of two control wells = 1.00
Settings: bead-derived peptide solution, EYPC/EYPG LUVs
Procedure, shortened: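 Values are normalized fluorescence, with Triton X-100 defining 100% and untreated LUVs 0%, and the two control wells averaging 1.00. Vesicles carried 1.0 mM pyranine and included egg yolk phosphatidylglycerol. Peptides were incubated with them 30 min at room temperature.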

**Q.** For CC(C)C[C@@H](NC(=O)[C@H](C)NC(=O)CNC(=O)[C@@H](NC=O)C(C)C)C(=O)N[C@@H](C)C(=O)N[C@@H](C(=O)N[C@H](C(=O)N[C@@H](C(=O)N[C@@H](Cc1c[nH]c2ccccc12)C(=O)N[C@H](CC(C)C)C(=O)N[C@@H](Cc1c[nH]c2ccccc12)C(=O)N[C@H](CC(C)C)C(=O)N[C@@H](Cc1c[nH]c2ccccc12)C(=O)N[C@H](CC(C)C)C(=O)N[C@@H](Cc1c[nH]c2ccccc12)C(=O)NCCO)C(C)C)C(C)C)C(C)C [compound 1, Gramicidin A] (For-VGA[dL]A[dV]V[dV]W[dL]W[dL]W[dL]W-NHCH2CH2OH), which “H+/Na+ transport activity normalized against the value of 1 (1.00)” value is on record?
**A.** The value was 1.07.
